The values that follow come from patent publication US20180045715A1, “STRUCTURE AND FUNCTION OF THE SALICYCLIC ACID BINDING SITES ON HUMAN HMGB1 AND METHODS OF USE THEREOF FOR THE RATIONAL DESIGN OF BOTH SALICYCLIC ACID DERIVATIVES AND OTHER AGENTS THAT ALTER ANIMAL AND PLANT HMGBS ACTIVITIES” (Boyce Thompson Institute for Plant Research, Inc., priority 2015, published 2018).

One assay concerns the target T1, HMGB1 Box A domain (Homo sapiens, UniProt P09429).
T1 construct: (iii) Box A: residues 10-80; hexaHis (TEV-cleavable) (N, cleaved yes); made in house
T1 sequence (P09429 10-80): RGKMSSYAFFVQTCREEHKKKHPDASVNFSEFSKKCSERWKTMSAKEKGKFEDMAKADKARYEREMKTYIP
In words: 15N-1H HSQC titration for Kd measurement. Format: binding. Here is the method: (§1) […] Samples were analyzed with and without SA or other candidate inhibitors at 25° C. Chemical shift perturbation studies were carried out using either a Bruker Avance 800 MHz Avance NMR system with 4-mm NMR tubes, or using a Bruker Avance 600 MHz NMR spectrometer equipped with a 1.7 mm micro cryoprobe. 1024 or 2048 complex points were acquired for each of 80 to 200 increments in the ^15N dimension with a recycle delay of 1 s. Each spectrum was typically acquired for 2-8 hrs. Chemical shift assignments were determined using a uniformly ^13C,^15N-enriched HMGB1-ΔC construct at 25° C. via traditional triple-resonance NMR experiments (Biamonti et al., 1994; Moseley et al., 2001) recorded on a Bruker 800 MHz NMR spectrometer equipped with a 5 mm cryoprobe. Disulfide oxidation studies were carried out using the ^15N-^1H SOFAST-HMQC NMR experiment (Schanda & Brutscher, 2005; Schanda et al., 2005; Zandarashvili et al., 2013).
NMR experiments were used to discover that ac3AESA binds to HMGB1 Box A domain of HMGB1 more tightly than SA itself. […] Chemical shift perturbations (CSPs) are defined as Δδppm=[(δHN*6.5)^2+δN^2]^1/2.

Another assay relates to Pep1. In words: Callose staining: Pep1-induced callose deposition in Arabidopsis leaves. It counts as in vivo, Arabidopsis thaliana. The settings on record: 100 nM Pep1, 15 h. As to the method:
Arabidopsis leaves were collected 15 h after infiltration with 100 nM AtHMGB3 or 100 nM Pep1, and then immediately immersed in alcoholic lactophenol (phenol:glycerol:lactic acid:water:ethanol=1:1:1:1:8) to destain the chlorophyll. To remove the background fluorescence, destained leaves were treated with toluidine blue O solution (0.05% toluidine blue O, 0.1 M sodium acetate, pH 4.4) for 30 min, and then rinsed twice with 150 mM K2HPO4 (pH 9.5). Callose was stained with aniline blue solution (0.02% aniline blue, 150 mM K2HPO4, pH 9.5) for 30 min in the absence of light. The aniline blue-stained leaves were mounted with 25% glycerol and analyzed using a Leica DM5500 epifluorescence microscope. The number of callose loci was quantified using an ImageJ (NIH).

Assay [1] concerns the target T2, full-length (FL) R24A/K28A HMGB1 (Homo sapiens, UniProt P09429, K28A/R24A).
T2 construct: (i) full length: residues 2-215; made in house
T2 sequence (P09429 2-215 R24A/K28A): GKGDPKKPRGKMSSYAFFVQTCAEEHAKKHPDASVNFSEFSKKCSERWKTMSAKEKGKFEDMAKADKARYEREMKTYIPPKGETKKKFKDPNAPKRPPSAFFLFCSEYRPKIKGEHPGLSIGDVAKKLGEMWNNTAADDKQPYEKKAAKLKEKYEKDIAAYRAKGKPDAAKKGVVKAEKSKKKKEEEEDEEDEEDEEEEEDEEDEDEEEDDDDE
The assay can be described thus: 15N-1H HSQC NMR binding to R24A/K28A HMGB1. Particulars: ~0.1 mM protein; 15 mM SA, 3 mM ac3AESA or 3 mM amorfrutin B1. As to the method:
as §1
An alternative explanation is that SA, at low concentrations, affects another factor in vivo, which results indirectly in suppression of HMGB1^RE-induced chemotaxis. […] Therefore, these residues were mutated to Ala to form the double mutant Arg24Ala/Lys28Ala (R24A/K28A).

The next assay deals with T3, HMGB1 (Homo sapiens, UniProt P09429).
T3 construct: (i) full length: residues 2-215; 6x His (cleaved yes); made in house; host or cells: Escherichia coli BL21
T3 sequence (P09429 2-215): T2 sequence (P09429 2-215 R24A/K28A) with A23R, A27K
The assay can be described thus: Cell migration assay with mouse embryonic fibroblasts, WT or Ptgs2-/-. Format: cell-based. The settings on record: dose-dependent, both WT and Ptgs2−/− MEFs. As to the method: Human HeLa cells were grown in T75 flasks in DMEM medium supplemented with penicillin (10,000 IU/mL) streptomycin ([…]), and 10% fetal calf serum. Ptgs2−/− MEFs were derived from Ptgs2−/− E16 mouse embryos, obtained from the mating of Ptgs2+/− mice purchased from Taconic Biosciences. PBMCs were isolated from buffy coats of donor blood (Hospital of Magenta, Milan, Italy) by Ficoll gradient centrifugation (Lymphoprep; AXIS-SHIELD. CD14+ monocytes were isolated by positive immunoselection (CD14 Microbeads; Miltenyi Biotec) according to the manufacturer's instructions, and differentiated into macrophages using X-Vivo medium supplemented with 1% heat inactivated human serum, GM-CSF, and M-CSF.
Cell migration was assayed using Boyden chambers (Venereau et al., 2012). The downside of PVP-free polycarbonate filters (8 μm pores; Millipore) was coated with 50 μg/ml fibronectin (Sigma). Serum-free DMEM (negative control), DMEM containing 0.1 nM fMLP (positive control; Sigma), or DMEM containing 1 nM HMGB1^RE or HMGB1^SS were placed in the lower chamber, together with different concentrations of SA (Sigma). The mouse 3T3 fibroblast cells were cultured in DMEM media supplemented with 10% CS until 90% confluence, washed twice with PBS to eliminate any floating cells, and harvested with trypsin. […]

The subject of the next assay is COX. The settings on record: cited from earlier work.

Residue numbers refer to the chain shown, from its start. Where “and” joins values, the source holds several entries; their conditions need not be identical. Equal values may be shown once. Read-outs that look alike come from different tables or passages of the source.

The IC50 is the concentration at which inhibition is half-maximal. For `O=C(O)c1ccccc1O` [SA, salicylic acid], the Kd on HMGB1 Box A domain (0.2 mM Box A, pH 7.5, read-out: Kd of binding to HMGB1 Box A (HSQC titration, 1:1 fit)) is ~90 mM and 90 mM; on HMGB1 Box A domain (Box A or full-length HMGB1, read-out: Kd from titrating SA with either Box A or full-length HMGB1) it was roughly 10 mM; on HMGB1 Box A domain (read-out: affinity (Kd) for Box A of HMGB1 as stated in definitions), roughly 10 mM. Moreover, in the assay on Pep1, the “effect on Pep1-induced callose deposition” value is reported as “unaffected”. The “binding to R24A/K28A HMGB1 (CSPs in HSQC)” value in assay [1] is “does not bind”. Further, the “inhibition of fibroblast migration in WT and Ptgs2-/- MEFs” value against HMGB1 is recorded as “effectively inhibited”. In addition, in the assay on COX (literature (Mitchell et al., 1997; Vane, 1971)), the “IC50, inhibition of COX activity in vitro” value was greater than 100 µg/mL. The IC50 with COX (literature, conversion in parentheses, read-out: IC50, inhibition of COX activity in vitro) was greater than 0.5 mM.
